Results: ChEMBL document CHEMBL5214985, “meta-Ureidophenoxy-1,2,3-triazole hybrid as a novel scaffold for promising HepG2 hepatocellular carcinoma inhibitors: Synthesis, biological evaluation and molecular docking studies” (Bioorg Med Chem, 2022)
Active and inactive are the calls of the source. The rule behind the calls is not given here.

Assays:
HepG2 [1] = assay: Anticancer activity against human HepG2 cells assessed as inhibition of cell viability incubated for 72 hrs by MTT assay; assay type: functional, cell-based; conditions: HepG2, 72 h
[2] = Selectivity index, ratio of IC50 for cytotoxicity against human MRC5 cells to IC50 for anticancer activity against human HepG2 cells; assay type: toxicity, cell-based; conditions: MRC5 cells versus HepG2 cells, read-out: Ratio IC50
[3] = Cytotoxicity against human MRC5 cells assessed as inhibition of cell viability incubated for 72 hrs by MTT assay; assay type: toxicity, cell-based
HepG2 [4] = assay: Potency index, ratio of Sorafenib IC50 to test compound IC50 for anticancer activity against human HepG2 cells assessed as inhibition of cell viability incubated for 72 hrs by MTT assay; assay type: functional
HepG2 [5] = assay: Induction of apoptosis in human HepG2 cells at 5 uM incubated for 72 hrs by Annexin V-FITC/PI staining based flow cytometry; assay type: functional, cell-based

| SMILES | IC50 (HepG2 [1]) | selectivity ratio [2] | IC50 at 72 h [3] | Ratio IC50 (HepG2 [4]) | Activity (HepG2 [5]) |
| --- | --- | --- | --- | --- | --- |
| O=C(Nc1cccc(OCc2cn(-c3ccccc3F)nn2)c1)Nc1ccc(Cl)c(C(F)(F)F)c1 | 1520 nM | – | – | – | – |
| O=C(Nc1cccc(OCc2cn(-c3ccccc3I)nn2)c1)Nc1ccc(Cl)c(C(F)(F)F)c1 | 2870 nM | 7.61 | 21900 nM | – | – |
| O=C(Nc1cccc(OCc2cn(-c3cccc(Cl)c3)nn2)c1)Nc1ccc(Cl)c(C(F)(F)F)c1 | 2020 nM | – | – | – | – |
| O=C(Nc1cccc(OCc2cn(-c3ccccc3Cl)nn2)c1)Nc1ccc(Cl)c(C(F)(F)F)c1 | 1960 nM | – | – | – | – |
| N#Cc1ccccc1-n1cc(COc2cccc(NC(=O)Nc3ccc(Cl)c(C(F)(F)F)c3)c2)nn1 | 1970 nM | 8.89 | 17500 nM | – | – |
| N#Cc1cccc(-n2cc(COc3cccc(NC(=O)Nc4ccc(Cl)c(C(F)(F)F)c4)c3)nn2)c1 | 2760 nM | 1.07 | 2960 nM | – | – |
| CC(C)c1ccc(-n2cc(COc3cccc(NC(=O)Nc4ccc(Cl)c(C(F)(F)F)c4)c3)nn2)cc1 | 2470 nM | – | – | – | – |
| O=C(Nc1cccc(OCc2cn(-c3ccccc3)nn2)c1)Nc1ccc(Cl)c(C(F)(F)F)c1 | 1780 nM | 10.3 | 18400 nM | 2.8 | – |
| CC(C)c1ccccc1-n1cc(COc2cccc(NC(=O)Nc3ccc(Cl)c(C(F)(F)F)c3)c2)nn1 | 1900 nM | – | – | – | – |
| CCc1cccc(-n2cc(COc3cccc(NC(=O)Nc4ccc(Cl)c(C(F)(F)F)c4)c3)nn2)c1 | 37900 nM | – | – | – | – |
| CNC(=O)c1cc(Oc2ccc(NC(=O)Nc3ccc(Cl)c(C(F)(F)F)c3)cc2)ccn1 [SORAFENIB] | – | – | 11100 nM | – | Active |
| O=C(Nc1cccc(OCc2cn(-c3cccc(F)c3)nn2)c1)Nc1ccc(Cl)c(C(F)(F)F)c1 | 2120 nM | – | – | – | – |
| O=C(Nc1cccc(OCc2cn(-c3ccccc3Br)nn2)c1)Nc1ccc(Cl)c(C(F)(F)F)c1 | 2810 nM | – | – | – | – |
| Cc1ccccc1-n1cc(COc2cccc(NC(=O)Nc3ccc(Cl)c(C(F)(F)F)c3)c2)nn1 | 3440 nM | – | – | – | – |
| Cc1cccc(-n2cc(COc3cccc(NC(=O)Nc4ccc(Cl)c(C(F)(F)F)c4)c3)nn2)c1 | 7270 nM | – | – | – | – |
| O=C(Nc1cccc(OCc2cn(-c3cccc(I)c3)nn2)c1)Nc1ccc(Cl)c(C(F)(F)F)c1 | 4780 nM | – | – | – | – |
| COc1cccc(-n2cc(COc3cccc(NC(=O)Nc4ccc(Cl)c(C(F)(F)F)c4)c3)nn2)c1 | 1310 nM | 6.55 | 8570 nM | – | – |
| CC(C)c1cccc(-n2cc(COc3cccc(NC(=O)Nc4ccc(Cl)c(C(F)(F)F)c4)c3)nn2)c1 | 3250 nM | 6.58 | 21400 nM | – | – |
| CCc1ccccc1-n1cc(COc2cccc(NC(=O)Nc3ccc(Cl)c(C(F)(F)F)c3)c2)nn1 | 3530 nM | – | – | – | – |
| O=C(Nc1cccc(OCc2cn(-c3cccc(Br)c3)nn2)c1)Nc1ccc(Cl)c(C(F)(F)F)c1 | 1040 nM | 11.5 | 11900 nM | 5 | Active |
| COc1ccccc1-n1cc(COc2cccc(NC(=O)Nc3ccc(Cl)c(C(F)(F)F)c3)c2)nn1 | 11300 nM | – | – | – | – |

More lines, main results first:

| IC50 (HepG2 [1]) | SMILES | selectivity ratio [2] | IC50 at 72 h [3] | Ratio IC50 (HepG2 [4]) | Activity (HepG2 [5]) |
| --- | --- | --- | --- | --- | --- |
| 1270 nM | O=C(Nc1cccc(OCc2cn(-c3cccc(C(F)(F)F)c3)nn2)c1)Nc1ccc(Cl)c(C(F)(F)F)c1 | – | – | – | – |
| 2320 nM | O=C(Nc1cccc(OCc2cn(-c3ccccc3C(F)(F)F)nn2)c1)Nc1ccc(Cl)c(C(F)(F)F)c1 | 3.55 | 8230 nM | – | – |
| 2690 nM | O=C(Nc1cccc(OCc2cn(-c3ccc(I)cc3)nn2)c1)Nc1ccc(Cl)c(C(F)(F)F)c1 | 2.55 | 6840 nM | – | – |
| 2490 nM | O=C(Nc1cccc(OCc2cn(-c3ccc(Cl)cc3)nn2)c1)Nc1ccc(Cl)c(C(F)(F)F)c1 | – | – | – | – |
| 2980 nM | N#Cc1ccc(-n2cc(COc3cccc(NC(=O)Nc4ccc(Cl)c(C(F)(F)F)c4)c3)nn2)cc1 | – | – | – | – |
| 2730 nM | O=C(Nc1cccc(OCc2cn(-c3ccc(Br)cc3)nn2)c1)Nc1ccc(Cl)c(C(F)(F)F)c1 | 4.03 | 11000 nM | – | – |
| 1800 nM | O=C(Nc1cccc(OCc2cn(-c3ccc(C(F)(F)F)cc3)nn2)c1)Nc1ccc(Cl)c(C(F)(F)F)c1 | – | – | – | – |
| 4680 nM | COc1ccc(-n2cc(COc3cccc(NC(=O)Nc4ccc(Cl)c(C(F)(F)F)c4)c3)nn2)cc1 | – | – | – | – |
| 5430 nM | Cc1ccc(-n2cc(COc3cccc(NC(=O)Nc4ccc(Cl)c(C(F)(F)F)c4)c3)nn2)cc1 | – | – | – | – |
| 1950 nM | CCc1ccc(-n2cc(COc3cccc(NC(=O)Nc4ccc(Cl)c(C(F)(F)F)c4)c3)nn2)cc1 | – | – | – | – |
| 1350 nM | O=C(Nc1cccc(OCc2cn(-c3ccc(F)cc3)nn2)c1)Nc1ccc(Cl)c(C(F)(F)F)c1 | 3.52 | 4740 nM | – | – |
